How the values were obtained:
Assay in all cases: relative viability (nuclei count vs DMSO), 5 days (fraction); higher = more cells survive
NCI-H1355 = system: NCI-H1355
Summary of the method: (§1)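 A single step with final 0.05% Triton X-100, 1% formaldehyde and 1 ug/ml Hoechst fixed the cells and stained nuclei 5 days after treatment. Lung cancer cell lines in 1536-well plates had been treated by pin tool the day after seeding with one drug alone or a fixed anchor-drug dose plus five library-drug doses (not always all listed) in √10 steps, and nuclei were counted on 4× images. Relative viability is the ratio of nuclei in treated wells to nuclei in vehicle wells, taken as the median of duplicate plates.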

NCI-H1975 = system: NCI-H1975
Summary of the method: as §1

HCC-78 = system: HCC-78
Summary of the method: as §1

LCLC-97TM1 = system: LCLC-97TM1
Summary of the method: as §1

NCI-H1651 = system: NCI-H1651
Summary of the method: as §1

PC-3 [JPC-3] = system: PC-3 [JPC-3]
Summary of the method: as §1

NCI-H2087 = system: NCI-H2087
Summary of the method: as §1

NCI-H596 = system: NCI-H596
Summary of the method: as §1

LC-2-ad = system: LC-2-ad
Summary of the method: as §1

NCI-H1666 = system: NCI-H1666
Summary of the method: as §1

NCI-H838 = system: NCI-H838
Summary of the method: as §1

NCI-H650 = system: NCI-H650
Summary of the method: as §1

NCI-H661 = system: NCI-H661
Summary of the method: as §1

ChaGo-K-1 = system: ChaGo-K-1
Summary of the method: as §1

BEN = system: BEN
Summary of the method: as §1

LU99A = system: LU99A
Summary of the method: as §1

LXF-289 = system: LXF-289
Summary of the method: as §1

O=c1cc(N2CCOCC2)oc2c(-c3cccc4c3sc3ccccc34)cccc12 + CC(C)C[C@H](NC(=O)[C@H](Cc1ccccc1)NC(=O)c1cnccn1)B(O)O [Bortezomib] (partner 0.002 µM) was tested. Which relative viability (NCI-H1355; first compound 0.01 µM) did it give?
The relative viability was 1.26.

And the relative viability (NCI-H1355; first compound 0.03162 µM)?
Its relative viability is 1.15.

And the relative viability (NCI-H1355; first compound 0.3162 µM)?
Its relative viability is 1.19.

And the relative viability (NCI-H1355; first compound 1 µM)?
The relative viability was 1.25.

And the relative viability (NCI-H1975; first compound 0.01 µM)?
The relative viability was 0.384.

And the relative viability (NCI-H1975; first compound 0.03162 µM)?
The relative viability was 0.387.

What about the relative viability (NCI-H1975; first compound 0.1 µM) of the same compound?
Its relative viability is 0.479.

What about the relative viability (NCI-H1975; first compound 0.3162 µM) of the same compound?
Its relative viability is 0.349.

And the relative viability (NCI-H1975; first compound 1 µM)?
Its relative viability is 0.372.

What about the relative viability (HCC-78; first compound 0.01 µM) of the same compound?
The relative viability was 0.544.

And the relative viability (HCC-78; first compound 0.03162 µM)?
The relative viability was 0.467.

And the relative viability (HCC-78; first compound 0.1 µM)?
Its relative viability is 0.566.

And the relative viability (HCC-78; first compound 0.3162 µM)?
The relative viability was 0.482.

And the relative viability (HCC-78; first compound 1 µM)?
The relative viability was 0.468.

What about the relative viability (LCLC-97TM1; first compound 0.01 µM) of the same compound?
The relative viability was 0.678.

And the relative viability (LCLC-97TM1; first compound 0.03162 µM)?
Its relative viability is 0.535.

What about the relative viability (LCLC-97TM1; first compound 0.1 µM) of the same compound?
Its relative viability is 0.473.

What about the relative viability (LCLC-97TM1; first compound 0.3162 µM) of the same compound?
The relative viability was 0.751.

What about the relative viability (LCLC-97TM1; first compound 1 µM) of the same compound?
The relative viability was 0.406.

What about the relative viability (NCI-H1651; first compound 0.01 µM) of the same compound?
Its relative viability is 0.897.

What about the relative viability (NCI-H1651; first compound 0.03162 µM) of the same compound?
Its relative viability is 0.991.

What about the relative viability (NCI-H1651; first compound 0.1 µM) of the same compound?
The relative viability was 0.952.

What about the relative viability (NCI-H1651; first compound 0.3162 µM) of the same compound?
The relative viability was 0.939.

And the relative viability (NCI-H1651; first compound 1 µM)?
The relative viability was 0.871.

What about the relative viability (PC-3 [JPC-3]; first compound 0.01 µM) of the same compound?
Its relative viability is 0.824.

What about the relative viability (PC-3 [JPC-3]; first compound 0.03162 µM) of the same compound?
Its relative viability is 0.744.

What about the relative viability (PC-3 [JPC-3]; first compound 0.1 µM) of the same compound?
The relative viability was 0.745.

And the relative viability (PC-3 [JPC-3]; first compound 0.3162 µM)?
The relative viability was 0.749.

What about the relative viability (PC-3 [JPC-3]; first compound 1 µM) of the same compound?
Its relative viability is 0.862.

And the relative viability (NCI-H2087; first compound 0.01 µM)?
The relative viability was 0.777.

And the relative viability (NCI-H2087; first compound 0.03162 µM)?
Its relative viability is 0.766.

And the relative viability (NCI-H2087; first compound 0.1 µM)?
The relative viability was 0.855.

What about the relative viability (NCI-H2087; first compound 0.3162 µM) of the same compound?
Its relative viability is 0.953.

What about the relative viability (NCI-H2087; first compound 1 µM) of the same compound?
The relative viability was 1.06.

What about the relative viability (NCI-H596; first compound 0.01 µM) of the same compound?
The relative viability was 0.897.

And the relative viability (NCI-H596; first compound 0.03162 µM)?
The relative viability was 1.07.

What about the relative viability (NCI-H596; first compound 0.1 µM) of the same compound?
Its relative viability is 1.37.

And the relative viability (NCI-H596; first compound 0.3162 µM)?
The relative viability was 1.06.

What about the relative viability (NCI-H596; first compound 1 µM) of the same compound?
Its relative viability is 1.08.

And the relative viability (LC-2-ad; first compound 0.01 µM)?
The relative viability was 1.15.

What about the relative viability (LC-2-ad; first compound 0.1 µM) of the same compound?
The relative viability was 1.09.

What about the relative viability (LC-2-ad; first compound 0.3162 µM) of the same compound?
The relative viability was 0.993.

And the relative viability (LC-2-ad; first compound 1 µM)?
The relative viability was 1.05.

And the relative viability (NCI-H1666; first compound 0.01 µM)?
The relative viability was 0.678.

What about the relative viability (NCI-H1666; first compound 0.03162 µM) of the same compound?
Its relative viability is 0.804.

And the relative viability (NCI-H1666; first compound 0.1 µM)?
The relative viability was 0.909.

What about the relative viability (NCI-H1666; first compound 0.3162 µM) of the same compound?
The relative viability was 0.703.

What about the relative viability (NCI-H1666; first compound 1 µM) of the same compound?
Its relative viability is 0.751.

And the relative viability (NCI-H838; first compound 0.01 µM)?
The relative viability was 0.779.

What about the relative viability (NCI-H838; first compound 0.03162 µM) of the same compound?
The relative viability was 0.673.

What about the relative viability (NCI-H838; first compound 0.1 µM) of the same compound?
Its relative viability is 0.805.

And the relative viability (NCI-H838; first compound 0.3162 µM)?
Its relative viability is 0.813.

And the relative viability (NCI-H838; first compound 1 µM)?
Its relative viability is 0.908.

And the relative viability (NCI-H650; first compound 0.01 µM)?
Its relative viability is 0.845.

And the relative viability (NCI-H650; first compound 0.03162 µM)?
Its relative viability is 0.837.

What about the relative viability (NCI-H650; first compound 0.3162 µM) of the same compound?
Its relative viability is 1.12.

And the relative viability (NCI-H650; first compound 1 µM)?
Its relative viability is 0.632.

What about the relative viability (NCI-H661; first compound 0.01 µM) of the same compound?
Its relative viability is 0.681.

What about the relative viability (NCI-H661; first compound 0.03162 µM) of the same compound?
The relative viability was 0.89.

What about the relative viability (NCI-H661; first compound 0.1 µM) of the same compound?
The relative viability was 0.752.

And the relative viability (NCI-H661; first compound 0.3162 µM)?
Its relative viability is 0.714.

What about the relative viability (NCI-H661; first compound 1 µM) of the same compound?
Its relative viability is 0.756.

And the relative viability (ChaGo-K-1; first compound 0.01 µM)?
Its relative viability is 0.64.

And the relative viability (ChaGo-K-1; first compound 0.03162 µM)?
The relative viability was 0.915.

What about the relative viability (ChaGo-K-1; first compound 0.1 µM) of the same compound?
The relative viability was 0.897.

And the relative viability (ChaGo-K-1; first compound 0.3162 µM)?
Its relative viability is 1.04.

What about the relative viability (ChaGo-K-1; first compound 1 µM) of the same compound?
Its relative viability is 0.977.

And the relative viability (BEN; first compound 0.01 µM)?
The relative viability was 0.867.

What about the relative viability (BEN; first compound 0.03162 µM) of the same compound?
The relative viability was 0.949.

And the relative viability (BEN; first compound 0.1 µM)?
The relative viability was 0.673.

And the relative viability (BEN; first compound 0.3162 µM)?
The relative viability was 0.793.

What about the relative viability (BEN; first compound 1 µM) of the same compound?
The relative viability was 0.712.

What about the relative viability (LU99A; first compound 0.01 µM) of the same compound?
Its relative viability is 1.25.

What about the relative viability (LU99A; first compound 0.03162 µM) of the same compound?
Its relative viability is 1.11.

And the relative viability (LU99A; first compound 0.1 µM)?
The relative viability was 1.19.

What about the relative viability (LU99A; first compound 0.3162 µM) of the same compound?
Its relative viability is 1.03.

And the relative viability (LU99A; first compound 1 µM)?
Its relative viability is 1.29.

And the relative viability (LXF-289; first compound 0.01 µM)?
Its relative viability is 1.01.

And the relative viability (LXF-289; first compound 0.03162 µM)?
The relative viability was 0.967.

And the relative viability (LXF-289; first compound 0.1 µM)?
The relative viability was 1.1.

And the relative viability (LXF-289; first compound 0.3162 µM)?
The relative viability was 1.03.

What about the relative viability (LXF-289; first compound 1 µM) of the same compound?
The relative viability was 1.05.

Source: the supplement of paper PMC10307832
